For two compounds, Activity results are on record in ChEMBL document CHEMBL1159225, “Oceanapamine, a sesquiterpene alkaloid from the Philippine sponge Oceanapia sp” (J Nat Prod, 1995).

The structures appear in SMILES notation. Activity calls are given as the source filed them. The rule behind the calls is not given here.

Common to all, as to type: functional, organism-based
One assay has as its system Escherichia coli. Put plainly: Antimicrobial activity against Escherichia coli at 25 ug/disk by standard disk assay.
The subject of a further assay is Bacillus subtilis. Put plainly: Antimicrobial activity against Bacillus subtilis at 25 ug/disk by standard disk assay.
Another assay deals with Pseudomonas aeruginosa. Description: Antimicrobial activity against Pseudomonas aeruginosa at 100 ug/disk by standard disk assay.
Another assay has as its system Candida albicans. Put plainly: Antifungal activity against Candida albicans at 50 ug/disk by standard disk assay.
Another assay deals with Staphylococcus aureus. Description: Antimicrobial activity against Staphylococcus aureus at 50 ug/disk by standard disk assay.

In the case of `C=C1CCCC(C)(C)[C@H]1CC/C(C)=C/Cc1ncn2c1CCNC2=O`, the outcome in the assay on Escherichia coli, with Bacillus subtilis, with Pseudomonas aeruginosa, with Candida albicans and with Staphylococcus aureus was inactive.

Turning to `C=C1CCCC(C)(C)[C@H]1CC/C(C)=C/Cc1nc[nH]c1CCN`, the outcome with Escherichia coli, in the assay with Bacillus subtilis, in the assay with Pseudomonas aeruginosa, in the assay on Candida albicans and in the assay on Staphylococcus aureus was Active.
